Data from the supplement of paper PMC5908809.

Tests used:
[1] = system: normal NK cells expanded with K562-aAPC; assay: percent inhibition of viability; higher = more inhibition; details: 72 h, IL-2 2.5 ng/mL
Procedure: (§1)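 Drug sensitivity and resistance testing on K562-aAPC-expanded normal NK cells: 5 concentrations (10-fold steps over a 10,000-fold range), 72 h at 37 °C, viability by CellTiter-Glo normalised to DMSO and benzethonium chloride controls; DSS from the fitted curve.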

DERL-7 (IL-2 2.5 ng/mL) [2] = assay: as above; details: 72 h
IMC-1 (IL-2 20 ng/mL) [3] = assay: as above; details: 72 h
KAI3 (IL-2 2.5 ng/mL) [4] = assay: as above; details: 72 h
KHYG-1 (IL-2 2.5 ng/mL) [5] = assay: as above; details: 72 h
NK-92 (IL-2 2.5 ng/mL) [6] = assay: as above; details: 72 h
NK-YS (IL-2 2.5 ng/mL) [7] = assay: as above; details: 72 h
NKL (IL-2 2.5 ng/mL) [8] = assay: as above; details: 72 h
SNK-6 (IL-2 2.5 ng/mL) [9] = assay: as above; details: 72 h
YT (IL-2 2.5 ng/mL) [10] = assay: as above; details: 72 h
[11] = system: normal primary NK cells, pool 1 (3 donors) (IL-2 2.5 ng/mL); assay: as above; details: 72 h
[12] = system: normal primary NK cells, pool 1 (3 donors), resting (IL-2 0 ng/mL); assay: as above; details: 72 h
[13] = system: normal primary NK cells, pool 2 (3 donors) (IL-2 2.5 ng/mL); assay: as above; details: 72 h
[14] = system: normal primary NK cells, pool 3 (3 donors) (IL-2 2.5 ng/mL); assay: as above; details: 72 h
[15] = system: normal NK cells expanded with K562-aAPC; assay: drug sensitivity score (DSS) (DSS units); higher = more sensitive; extreme values may be limits of the assay; details: 72 h; IL-2 2.5 ng/mL
Procedure: as §1

DERL-7 (IL-2 2.5 ng/mL) [16] = assay: as above; details: 72 h
IMC-1 (IL-2 20 ng/mL) [17] = assay: as above; details: 72 h
KAI3 (IL-2 2.5 ng/mL) [18] = assay: as above; details: 72 h
KHYG-1 (IL-2 2.5 ng/mL) [19] = assay: as above; details: 72 h
NK-92 (IL-2 2.5 ng/mL) [20] = assay: as above; details: 72 h
NK-YS (IL-2 2.5 ng/mL) [21] = assay: as above; details: 72 h
NKL (IL-2 2.5 ng/mL) [22] = assay: as above; details: 72 h
SNK-6 (IL-2 2.5 ng/mL) [23] = assay: as above; details: 72 h
YT (IL-2 2.5 ng/mL) [24] = assay: as above; details: 72 h
[25] = system: normal primary NK cells, pool 1 (3 donors) (IL-2 2.5 ng/mL); assay: as above; details: 72 h
[26] = system: normal primary NK cells, pool 1 (3 donors), resting (IL-2 0 ng/mL); assay: as above; details: 72 h
[27] = system: normal primary NK cells, pool 2 (3 donors) (IL-2 2.5 ng/mL); assay: as above; details: 72 h
[28] = system: normal primary NK cells, pool 3 (3 donors) (IL-2 2.5 ng/mL); assay: as above; details: 72 h

COC(=O)N[C@@H](C)CNc1nccc(-c2cn(C(C)C)nc2-c2cc(Cl)cc(NS(C)(=O)=O)c2F)n1 [Encorafenib] (max concentration tested 1000 nM)
percent inhibition of viability ([1]; 0.1 nM): -0.52% | percent inhibition of viability ([1]; 1 nM): -2.88% | percent inhibition of viability ([1]; 10 nM): -3.45% | percent inhibition of viability ([1]; 100 nM): 0.31% | percent inhibition of viability ([1]; 1000 nM): 8.45% | percent inhibition of viability (DERL-7 (IL-2 2.5 ng/mL) [2]; 0.1 nM): -4.45% | percent inhibition of viability (DERL-7 (IL-2 2.5 ng/mL) [2]; 1 nM): 1.39% | percent inhibition of viability (DERL-7 (IL-2 2.5 ng/mL) [2]; 10 nM): -5.31% | percent inhibition of viability (DERL-7 (IL-2 2.5 ng/mL) [2]; 100 nM): -20.4% | percent inhibition of viability (DERL-7 (IL-2 2.5 ng/mL) [2]; 1000 nM): 2.89% | percent inhibition of viability (IMC-1 (IL-2 20 ng/mL) [3]; 0.1 nM): -3.38% | percent inhibition of viability (IMC-1 (IL-2 20 ng/mL) [3]; 1 nM): -1.85% | percent inhibition of viability (IMC-1 (IL-2 20 ng/mL) [3]; 10 nM): -0.96% | percent inhibition of viability (IMC-1 (IL-2 20 ng/mL) [3]; 100 nM): 1.07% | percent inhibition of viability (IMC-1 (IL-2 20 ng/mL) [3]; 1000 nM): 11.3% | percent inhibition of viability (KAI3 (IL-2 2.5 ng/mL) [4]; 0.1 nM): -3.35% | percent inhibition of viability (KAI3 (IL-2 2.5 ng/mL) [4]; 1 nM): -4.73% | percent inhibition of viability (KAI3 (IL-2 2.5 ng/mL) [4]; 10 nM): -1.44% | percent inhibition of viability (KAI3 (IL-2 2.5 ng/mL) [4]; 100 nM): -5.19% | percent inhibition of viability (KAI3 (IL-2 2.5 ng/mL) [4]; 1000 nM): 35.6% | percent inhibition of viability (KHYG-1 (IL-2 2.5 ng/mL) [5]; 0.1 nM): 1.4% | percent inhibition of viability (KHYG-1 (IL-2 2.5 ng/mL) [5]; 1 nM): 3.41% | percent inhibition of viability (KHYG-1 (IL-2 2.5 ng/mL) [5]; 10 nM): 40.8% | percent inhibition of viability (KHYG-1 (IL-2 2.5 ng/mL) [5]; 100 nM): 96.3% | percent inhibition of viability (KHYG-1 (IL-2 2.5 ng/mL) [5]; 1000 nM): 36% | percent inhibition of viability (NK-92 (IL-2 2.5 ng/mL) [6]; 0.1 nM): 3.73% | percent inhibition of viability (NK-92 (IL-2 2.5 ng/mL) [6]; 1 nM): -5.79% | percent inhibition of viability (NK-92 (IL-2 2.5 ng/mL) [6]; 10 nM): 17.9% | percent inhibition of viability (NK-92 (IL-2 2.5 ng/mL) [6]; 100 nM): 6.05% | percent inhibition of viability (NK-92 (IL-2 2.5 ng/mL) [6]; 1000 nM): 10.7% | percent inhibition of viability (NK-YS (IL-2 2.5 ng/mL) [7]; 0.1 nM): 0.75% | percent inhibition of viability (NK-YS (IL-2 2.5 ng/mL) [7]; 1 nM): 0.97% | percent inhibition of viability (NK-YS (IL-2 2.5 ng/mL) [7]; 10 nM): 2.64% | percent inhibition of viability (NK-YS (IL-2 2.5 ng/mL) [7]; 100 nM): 4.64% | percent inhibition of viability (NK-YS (IL-2 2.5 ng/mL) [7]; 1000 nM): 15.7% | percent inhibition of viability (NKL (IL-2 2.5 ng/mL) [8]; 0.1 nM): -6.88% | percent inhibition of viability (NKL (IL-2 2.5 ng/mL) [8]; 1 nM): -1.53% | percent inhibition of viability (NKL (IL-2 2.5 ng/mL) [8]; 10 nM): -12.4% | percent inhibition of viability (NKL (IL-2 2.5 ng/mL) [8]; 100 nM): -13% | percent inhibition of viability (NKL (IL-2 2.5 ng/mL) [8]; 1000 nM): 2.6% | percent inhibition of viability (SNK-6 (IL-2 2.5 ng/mL) [9]; 0.1 nM): -4.51% | percent inhibition of viability (SNK-6 (IL-2 2.5 ng/mL) [9]; 1 nM): -10% | percent inhibition of viability (SNK-6 (IL-2 2.5 ng/mL) [9]; 10 nM): 13.8% | percent inhibition of viability (SNK-6 (IL-2 2.5 ng/mL) [9]; 100 nM): 2.67% | percent inhibition of viability (SNK-6 (IL-2 2.5 ng/mL) [9]; 1000 nM): 3.42% | percent inhibition of viability (YT (IL-2 2.5 ng/mL) [10]; 0.1 nM): 4.02% | percent inhibition of viability (YT (IL-2 2.5 ng/mL) [10]; 1 nM): 1.12% | percent inhibition of viability (YT (IL-2 2.5 ng/mL) [10]; 10 nM): 4.21% | percent inhibition of viability (YT (IL-2 2.5 ng/mL) [10]; 100 nM): 0.09% | percent inhibition of viability (YT (IL-2 2.5 ng/mL) [10]; 1000 nM): 19.3% | percent inhibition of viability ([11]; 0.1 nM): -4.01% | percent inhibition of viability ([11]; 1 nM): -8.97% | percent inhibition of viability ([11]; 10 nM): -7.94% | percent inhibition of viability ([11]; 100 nM): -18.4% | percent inhibition of viability ([11]; 1000 nM): -8.33% | percent inhibition of viability ([12]; 0.1 nM): 6.42% | percent inhibition of viability ([12]; 1 nM): -18.3% | percent inhibition of viability ([12]; 10 nM): -10.7% | percent inhibition of viability ([12]; 100 nM): -27.7% | percent inhibition of viability ([12]; 1000 nM): 1.26% | percent inhibition of viability ([13]; 0.1 nM): -12.3% | percent inhibition of viability ([13]; 1 nM): -6.1% | percent inhibition of viability ([13]; 10 nM): -1.97% | percent inhibition of viability ([13]; 100 nM): -5.14% | percent inhibition of viability ([13]; 1000 nM): -1.61% | percent inhibition of viability ([14]; 0.1 nM): -8.13% | percent inhibition of viability ([14]; 1 nM): -6.38% | percent inhibition of viability ([14]; 10 nM): -2.7% | percent inhibition of viability ([14]; 100 nM): -12.9% | percent inhibition of viability ([14]; 1000 nM): -4.56% | drug sensitivity score [15]: 0 | drug sensitivity score (DERL-7 (IL-2 2.5 ng/mL) [16]): 0 | drug sensitivity score (IMC-1 (IL-2 20 ng/mL) [17]): 0.04 | drug sensitivity score (KAI3 (IL-2 2.5 ng/mL) [18]): 1.37 | drug sensitivity score (KHYG-1 (IL-2 2.5 ng/mL) [19]): 16.3 | drug sensitivity score (NK-92 (IL-2 2.5 ng/mL) [20]): 0.17 | drug sensitivity score (NK-YS (IL-2 2.5 ng/mL) [21]): 0.52 | drug sensitivity score (NKL (IL-2 2.5 ng/mL) [22]): 0 | drug sensitivity score (SNK-6 (IL-2 2.5 ng/mL) [23]): 0 | drug sensitivity score (YT (IL-2 2.5 ng/mL) [24]): 0.55 | drug sensitivity score [25]: 0 | drug sensitivity score [26]: 0 | drug sensitivity score [27]: 0 | drug sensitivity score [28]: 0
